Laboratory results taken from patent US7785875B2, “Polynucleotide encoding HCV epitopes which can bind to various HLA supertypes, immunogenic composition comprising same and method of inducing an HCV-specific immune response using same” (priority 2004, dated 2010).

Test system: PBMCs derived from HCV-infected patients
Experiment: Ex vivo IFN-γ ELISPOT assay
Type: cell-based, human
Conditions: for responsiveness of positive reaction: positive = 30 or more SFCs per 2×10^5 PBMCs; for number of HLA types the epitope was positive to: of 9 HLA types found in the patients (A2, A24, A26, A3, B7, B15, B27, B44, B51)

L1: HCV epitope peptide of 9 amino acids, Core, region 118 (NLGKVIDTL) [Peptide L1]
responsiveness of positive reaction (HLA-A2 type patients): 11.5% | responsiveness of positive reaction (HLA-A3 type patients): 10.0% | responsiveness of positive reaction (HLA-A24 type patients): 8.3% | responsiveness of positive reaction (HLA-A26 type patients): 0% | Number of patients showing positive response/Number of patients having specific MHC type (HLA-A molecule A2): 3/26 | Number of patients showing positive response/Number of patients having specific MHC type (HLA-A molecule A3): 3/30 | Number of patients showing positive response/Number of patients having specific MHC type (HLA-A molecule A24): 2/24 | Number of patients showing positive response/Number of patients having specific MHC type (HLA-A molecule A26): 0/1 | responsiveness of positive reaction (HLA-B7 type patients): 11.7% | responsiveness of positive reaction (HLA-B15 type patients): 0% | responsiveness of positive reaction (HLA-B27 type patients): 0% | responsiveness of positive reaction (HLA-B44 type patients): 33.3% | responsiveness of positive reaction (HLA-B51 type patients): 10.0% | Number of patients showing positive response/Number of patients having specific MHC type (HLA-B molecule B7): 2/17 | Number of patients showing positive response/Number of patients having specific MHC type (HLA-B molecule B15): 0/9 | Number of patients showing positive response/Number of patients having specific MHC type (HLA-B molecule B27): 0/4 | Number of patients showing positive response/Number of patients having specific MHC type (HLA-B molecule B44): 3/9 | Number of patients showing positive response/Number of patients having specific MHC type (HLA-B molecule B51): 1/10 | number of HLA types the epitope was positive to: 6

L7: HCV epitope peptide of 9 amino acids, NS2, region 883 (ELIFDITKL) [Peptide L7]
responsiveness of positive reaction (HLA-A2 type patients): 19.2% | responsiveness of positive reaction (HLA-A3 type patients): 10.0% | responsiveness of positive reaction (HLA-A24 type patients): 12.5% | responsiveness of positive reaction (HLA-A26 type patients): 0% | Number of patients showing positive response/Number of patients having specific MHC type (HLA-A molecule A2): 5/26 | Number of patients showing positive response/Number of patients having specific MHC type (HLA-A molecule A3): 3/30 | Number of patients showing positive response/Number of patients having specific MHC type (HLA-A molecule A24): 3/24 | Number of patients showing positive response/Number of patients having specific MHC type (HLA-A molecule A26): 0/1 | responsiveness of positive reaction (HLA-B7 type patients): 17.6% | responsiveness of positive reaction (HLA-B15 type patients): 22.2% | responsiveness of positive reaction (HLA-B27 type patients): 25.0% | responsiveness of positive reaction (HLA-B44 type patients): 11.1% | responsiveness of positive reaction (HLA-B51 type patients): 20.0% | Number of patients showing positive response/Number of patients having specific MHC type (HLA-B molecule B7): 3/17 | Number of patients showing positive response/Number of patients having specific MHC type (HLA-B molecule B15): 2/9 | Number of patients showing positive response/Number of patients having specific MHC type (HLA-B molecule B27): 1/4 | Number of patients showing positive response/Number of patients having specific MHC type (HLA-B molecule B44): 1/9 | Number of patients showing positive response/Number of patients having specific MHC type (HLA-B molecule B51): 2/10 | number of HLA types the epitope was positive to: 8

C1: HCV epitope peptide of 9 amino acids, NS3, region 1338 (TAGARLVVL) [Peptide C1]
responsiveness of positive reaction (HLA-A2 type patients): 11.5% | responsiveness of positive reaction (HLA-A3 type patients): 10.0% | responsiveness of positive reaction (HLA-A24 type patients): 4.18% | responsiveness of positive reaction (HLA-A26 type patients): 0% | Number of patients showing positive response/Number of patients having specific MHC type (HLA-A molecule A2): 3/26 | Number of patients showing positive response/Number of patients having specific MHC type (HLA-A molecule A3): 3/30 | Number of patients showing positive response/Number of patients having specific MHC type (HLA-A molecule A24): 1/24 | Number of patients showing positive response/Number of patients having specific MHC type (HLA-A molecule A26): 0/1 | responsiveness of positive reaction (HLA-B7 type patients): 11.7% | responsiveness of positive reaction (HLA-B15 type patients): 0% | responsiveness of positive reaction (HLA-B27 type patients): 0% | responsiveness of positive reaction (HLA-B44 type patients): 22.2% | responsiveness of positive reaction (HLA-B51 type patients): 20.0% | Number of patients showing positive response/Number of patients having specific MHC type (HLA-B molecule B7): 2/17 | Number of patients showing positive response/Number of patients having specific MHC type (HLA-B molecule B15): 0/9 | Number of patients showing positive response/Number of patients having specific MHC type (HLA-B molecule B27): 0/4 | Number of patients showing positive response/Number of patients having specific MHC type (HLA-B molecule B44): 2/9 | Number of patients showing positive response/Number of patients having specific MHC type (HLA-B molecule B51): 2/10 | number of HLA types the epitope was positive to: 6

C4: HCV epitope peptide of 9 amino acids, NS2, region 894 (AILGPLMVF) [Peptide C4]
responsiveness of positive reaction (HLA-A2 type patients): 26.3% | responsiveness of positive reaction (HLA-A3 type patients): 23.5% | responsiveness of positive reaction (HLA-A24 type patients): 29.1% | responsiveness of positive reaction (HLA-A26 type patients): 0% | Number of patients showing positive response/Number of patients having specific MHC type (HLA-A molecule A2): 7/26 | Number of patients showing positive response/Number of patients having specific MHC type (HLA-A molecule A3): 7/30 | Number of patients showing positive response/Number of patients having specific MHC type (HLA-A molecule A24): 7/24 | Number of patients showing positive response/Number of patients having specific MHC type (HLA-A molecule A26): 0/1 | responsiveness of positive reaction (HLA-B7 type patients): 29.1% | responsiveness of positive reaction (HLA-B15 type patients): 44.4% | responsiveness of positive reaction (HLA-B27 type patients): 0% | responsiveness of positive reaction (HLA-B44 type patients): 22.2% | responsiveness of positive reaction (HLA-B51 type patients): 50.0% | Number of patients showing positive response/Number of patients having specific MHC type (HLA-B molecule B7): 5/17 | Number of patients showing positive response/Number of patients having specific MHC type (HLA-B molecule B15): 4/9 | Number of patients showing positive response/Number of patients having specific MHC type (HLA-B molecule B27): 0/4 | Number of patients showing positive response/Number of patients having specific MHC type (HLA-B molecule B44): 2/9 | Number of patients showing positive response/Number of patients having specific MHC type (HLA-B molecule B51): 5/10 | number of HLA types the epitope was positive to: 7

L2: HCV epitope peptide of 9 amino acids, E2, region 632 (YVGGVEHRL) [Peptide L2]
responsiveness of positive reaction (HLA-A2 type patients): 15.3% | responsiveness of positive reaction (HLA-A3 type patients): 13.3% | responsiveness of positive reaction (HLA-A24 type patients): 12.5% | responsiveness of positive reaction (HLA-A26 type patients): 0% | Number of patients showing positive response/Number of patients having specific MHC type (HLA-A molecule A2): 4/26 | Number of patients showing positive response/Number of patients having specific MHC type (HLA-A molecule A3): 4/30 | Number of patients showing positive response/Number of patients having specific MHC type (HLA-A molecule A24): 3/24 | Number of patients showing positive response/Number of patients having specific MHC type (HLA-A molecule A26): 0/1 | responsiveness of positive reaction (HLA-B7 type patients): 5.8% | responsiveness of positive reaction (HLA-B15 type patients): 22.2% | responsiveness of positive reaction (HLA-B27 type patients): 25.0% | responsiveness of positive reaction (HLA-B44 type patients): 11.1% | responsiveness of positive reaction (HLA-B51 type patients): 20.0% | Number of patients showing positive response/Number of patients having specific MHC type (HLA-B molecule B7): 1/17 | Number of patients showing positive response/Number of patients having specific MHC type (HLA-B molecule B15): 2/9 | Number of patients showing positive response/Number of patients having specific MHC type (HLA-B molecule B27): 1/4 | Number of patients showing positive response/Number of patients having specific MHC type (HLA-B molecule B44): 1/9 | Number of patients showing positive response/Number of patients having specific MHC type (HLA-B molecule B51): 2/10 | number of HLA types the epitope was positive to: 8

L6: HCV epitope peptide of 9 amino acids, E2, region 628 (KVRMYVGGV) [Peptide L6]
responsiveness of positive reaction (HLA-A2 type patients): 15.3% | responsiveness of positive reaction (HLA-A3 type patients): 10.0% | responsiveness of positive reaction (HLA-A24 type patients): 8.3% | responsiveness of positive reaction (HLA-A26 type patients): 0% | Number of patients showing positive response/Number of patients having specific MHC type (HLA-A molecule A2): 4/26 | Number of patients showing positive response/Number of patients having specific MHC type (HLA-A molecule A3): 3/30 | Number of patients showing positive response/Number of patients having specific MHC type (HLA-A molecule A24): 2/24 | Number of patients showing positive response/Number of patients having specific MHC type (HLA-A molecule A26): 0/1 | responsiveness of positive reaction (HLA-B7 type patients): 11.7% | responsiveness of positive reaction (HLA-B15 type patients): 11.1% | responsiveness of positive reaction (HLA-B27 type patients): 0% | responsiveness of positive reaction (HLA-B44 type patients): 11.1% | responsiveness of positive reaction (HLA-B51 type patients): 30.0% | Number of patients showing positive response/Number of patients having specific MHC type (HLA-B molecule B7): 2/17 | Number of patients showing positive response/Number of patients having specific MHC type (HLA-B molecule B15): 1/9 | Number of patients showing positive response/Number of patients having specific MHC type (HLA-B molecule B27): 0/4 | Number of patients showing positive response/Number of patients having specific MHC type (HLA-B molecule B44): 1/9 | Number of patients showing positive response/Number of patients having specific MHC type (HLA-B molecule B51): 3/10 | number of HLA types the epitope was positive to: 7
